From BindingDB's records for PubMed 10347254 (R. W. Johnson Pharmaceutical Research Institute, 1999) come the findings set out here.

Each structure is given as a SMILES string.

The test concerns the target Histamine H3 receptor (Homo sapiens, UniProt Q9Y5N1).

Histamine H3 receptor, sequence (Q9Y5N1 whole entry): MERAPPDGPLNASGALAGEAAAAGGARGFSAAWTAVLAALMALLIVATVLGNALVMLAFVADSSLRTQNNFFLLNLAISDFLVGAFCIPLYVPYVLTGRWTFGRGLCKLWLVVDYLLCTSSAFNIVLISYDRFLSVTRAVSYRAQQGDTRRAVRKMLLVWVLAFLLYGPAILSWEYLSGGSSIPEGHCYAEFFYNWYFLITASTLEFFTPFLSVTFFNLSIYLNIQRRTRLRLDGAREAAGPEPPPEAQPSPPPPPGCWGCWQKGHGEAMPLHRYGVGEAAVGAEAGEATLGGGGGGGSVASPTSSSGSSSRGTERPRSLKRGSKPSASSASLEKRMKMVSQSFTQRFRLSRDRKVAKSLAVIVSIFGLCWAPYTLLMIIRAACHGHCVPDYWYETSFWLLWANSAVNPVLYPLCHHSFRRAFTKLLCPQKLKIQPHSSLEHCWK

The molecule `c1nc(CC2CCNCC2)c[nH]1` [4-(1H-imidazol-4-ylmethyl)piperidine] yielded a Ki above 10 µM.

The molecule `N=C(N)SCCc1cnc[nH]1` [2-(3H-imidazol-4-yl)ethylsulfanylmethanimidamide] displayed a Ki above 10 µM.

Turning to `CNCCc1c[nH]cn1` [N(alpha)-Methylhistamine], the Ki was above 10 µM.

In turn, `c1c[nH]cn1` came in with a Ki above 10 µM.

Molecule `COc1ccc(CN(CCN(C)C)c2ccccn2)cc1` yielded a Ki above 10 µM.

Regarding `CN/C([CH-][N+](=O)[O-])=[NH+]\CCSCc1ccc(CN(C)C)o1`, the Ki is above 10 µM.

For orientation: Ki means a dissociation constant, usually derived from enzyme kinetics or from competition with a known ligand. A low value points to a stronger hold on the target.
